Measurements from US8735601B2, “Pentamethine cyanine fluorescent dye with N-substituting at β-position of conjugated chain” (Dalian University of Technology, priority 2010, dated 2014).
Values belong to the molecule of their own block, whether it stands above or below them.

How the values were obtained:
[1] = Absorption and emission spectra of dyes in different solvents; assay type: physicochemical; parameters: key to Δλ1 / Δλ2: Stokes shift in nm; ε1 (molar extinction coefficient) / ε2 (molar extinction coefficient): scale not given here; conditions: for Δλ1: Stokes shift to absorption peak 1; for Δλ2: Stokes shift to absorption peak 2
From the text: In the present invention, compounds IIa to IIg were synthesized based on compound II, and their spectral properties were investigated. Compared with the traditional pentamethine cyanine dye, for the novel pentamethine cyanine dye with N-substituting at β-position (deviated position), it was observed that, evident blue shift of absorption and emission wavelengths occurred, absorption wavelength blue shifted even largely than that of emission wavelength, absorption spectrum and fluorescence spectrum were no longer mirror-symmetric and had two absorption peaks and a single emission peak, and larger Stokes shift (minimum 60 and 150 nm, and maximum 90 and 230 nm) appeared.

[2] = Measurement of fluorescence quantum yield (Rhodamine B in ethanol as reference); assay type: physicochemical

Δλ1 ([1]; solvent DCM): 87
Δλ1 ([1]; solvent DMSO): 90
Δλ1 ([1]; solvent Ethanol): 87
Δλ1 ([1]; solvent Methanol): 90
Δλ1 ([1]; solvent THF): 86
Δλ1 ([1]; solvent Water): 93
Δλ2 ([1]; solvent DCM): 162
Δλ2 ([1]; solvent DMSO): 151
Δλ2 ([1]; solvent Ethanol): 163
Δλ2 ([1]; solvent Methanol): 166
Δλ2 ([1]; solvent THF): 156
Δλ2 ([1]; solvent Water): 171
ε1 (molar extinction coefficient) ([1]; solvent DCM): 3.1 cm^−1M
ε2 (molar extinction coefficient) ([1]; solvent DCM): 2.1 cm^−1M
λabs1 ([1]; solvent DCM): 528 nm
λbs2 ([1]; solvent DCM): 453 nm
λem ([1]; solvent DCM): 615 nm
ε1 (molar extinction coefficient) ([1]; solvent DMSO): 3.3 cm^−1M
ε2 (molar extinction coefficient) ([1]; solvent DMSO): 2.2 cm^−1M
λabs1 ([1]; solvent DMSO): 521 nm
λbs2 ([1]; solvent DMSO): 460 nm
λem ([1]; solvent DMSO): 611 nm
ε1 (molar extinction coefficient) ([1]; solvent Ethanol): 3.4 cm^−1M
ε2 (molar extinction coefficient) ([1]; solvent Ethanol): 2.5 cm^−1M
λabs1 ([1]; solvent Ethanol): 528 nm
λbs2 ([1]; solvent Ethanol): 452 nm
λem ([1]; solvent Ethanol): 615 nm
ε1 (molar extinction coefficient) ([1]; solvent Methanol): 3.4 cm^−1M
ε2 (molar extinction coefficient) ([1]; solvent Methanol): 2.5 cm^−1M
λabs1 ([1]; solvent Methanol): 527 nm
λbs2 ([1]; solvent Methanol): 451 nm
λem ([1]; solvent Methanol): 617 nm
ε1 (molar extinction coefficient) ([1]; solvent THF): 4.0 cm^−1M
ε2 (molar extinction coefficient) ([1]; solvent THF): 2.0 cm^−1M
λabs1 ([1]; solvent THF): 523 nm
λbs2 ([1]; solvent THF): 453 nm
λem ([1]; solvent THF): 609 nm
ε1 (molar extinction coefficient) ([1]; solvent Water): 2.5 cm^−1M
ε2 (molar extinction coefficient) ([1]; solvent Water): 1.9 cm^−1M
λabs1 ([1]; solvent Water): 525 nm
λbs2 ([1]; solvent Water): 447 nm
λem ([1]; solvent Water): 618 nm
Φ1 (fluorescence quantum yield) ([2]; solvent DCM): 0.113
Φ2 (fluorescence quantum yield) ([2]; solvent DCM): 0.105
Φ1 (fluorescence quantum yield) ([2]; solvent DMSO): 0.004
Φ2 (fluorescence quantum yield) ([2]; solvent DMSO): 0.005
Φ1 (fluorescence quantum yield) ([2]; solvent Ethanol): 0.010
Φ2 (fluorescence quantum yield) ([2]; solvent Ethanol): 0.009
Φ1 (fluorescence quantum yield) ([2]; solvent Methanol): 0.005
Φ2 (fluorescence quantum yield) ([2]; solvent Methanol): 0.004
Φ1 (fluorescence quantum yield) ([2]; solvent THF): 0.036
Φ2 (fluorescence quantum yield) ([2]; solvent THF): 0.034
Φ1 (fluorescence quantum yield) ([2]; solvent Water): 0.001
Φ2 (fluorescence quantum yield) ([2]; solvent Water): 0.002
SMILES: CCN1/C(=C/C=C/C(=C/C2=[N+](CC)c3ccccc3C2(C)C)N(Cc2ccccc2)Cc2ccccc2)C(C)(C)c2ccccc21 [Dye IIf]

Δλ1 ([1]; solvent DCM): 88
Δλ1 ([1]; solvent DMSO): 92
Δλ1 ([1]; solvent Ethanol): 94
Δλ1 ([1]; solvent Methanol): 96
Δλ1 ([1]; solvent THF): 87
Δλ1 ([1]; solvent Water): 99
Δλ2 ([1]; solvent DCM): 158
Δλ2 ([1]; solvent DMSO): 140
Δλ2 ([1]; solvent Ethanol): 157
Δλ2 ([1]; solvent Methanol): 158
Δλ2 ([1]; solvent THF): 154
Δλ2 ([1]; solvent Water): 152
ε1 (molar extinction coefficient) ([1]; solvent DCM): 4.3 cm^−1M
ε2 (molar extinction coefficient) ([1]; solvent DCM): 2.9 cm^−1M
λabs1 ([1]; solvent DCM): 523 nm
λbs2 ([1]; solvent DCM): 453 nm
λem ([1]; solvent DCM): 611 nm
ε1 (molar extinction coefficient) ([1]; solvent DMSO): 3.9 cm^−1M
ε2 (molar extinction coefficient) ([1]; solvent DMSO): 2.7 cm^−1M
λabs1 ([1]; solvent DMSO): 508 nm
λbs2 ([1]; solvent DMSO): 460 nm
λem ([1]; solvent DMSO): 600 nm
ε1 (molar extinction coefficient) ([1]; solvent Ethanol): 3.5 cm^−1M
ε2 (molar extinction coefficient) ([1]; solvent Ethanol): 2.5 cm^−1M
λabs1 ([1]; solvent Ethanol): 516 nm
λbs2 ([1]; solvent Ethanol): 453 nm
λem ([1]; solvent Ethanol): 610 nm
ε1 (molar extinction coefficient) ([1]; solvent Methanol): 3.9 cm^−1M
ε2 (molar extinction coefficient) ([1]; solvent Methanol): 2.8 cm^−1M
λabs1 ([1]; solvent Methanol): 513 nm
λbs2 ([1]; solvent Methanol): 451 nm
λem ([1]; solvent Methanol): 609 nm
ε1 (molar extinction coefficient) ([1]; solvent THF): 4.1 cm^−1M
ε2 (molar extinction coefficient) ([1]; solvent THF): 2.1 cm^−1M
λabs1 ([1]; solvent THF): 517 nm
λbs2 ([1]; solvent THF): 450 nm
λem ([1]; solvent THF): 604 nm
ε1 (molar extinction coefficient) ([1]; solvent Water): 2.9 cm^−1M
ε2 (molar extinction coefficient) ([1]; solvent Water): 2.3 cm^−1M
λabs1 ([1]; solvent Water): 501 nm
λbs2 ([1]; solvent Water): 448 nm
λem ([1]; solvent Water): 600 nm
Φ1 (fluorescence quantum yield) ([2]; solvent DCM): 0.124
Φ2 (fluorescence quantum yield) ([2]; solvent DCM): 0.085
Φ1 (fluorescence quantum yield) ([2]; solvent DMSO): 0.004
Φ2 (fluorescence quantum yield) ([2]; solvent DMSO): 0.004
Φ1 (fluorescence quantum yield) ([2]; solvent Ethanol): 0.009
Φ2 (fluorescence quantum yield) ([2]; solvent Ethanol): 0.009
Φ1 (fluorescence quantum yield) ([2]; solvent Methanol): 0.005
Φ2 (fluorescence quantum yield) ([2]; solvent Methanol): 0.005
Φ1 (fluorescence quantum yield) ([2]; solvent THF): 0.030
Φ2 (fluorescence quantum yield) ([2]; solvent THF): 0.022
Φ1 (fluorescence quantum yield) ([2]; solvent Water): 0.001
Φ2 (fluorescence quantum yield) ([2]; solvent Water): 0.001
SMILES: CCN(CC)C(=C\C1=[N+](CC)c2ccccc2C1(C)C)/C=C/C=C1/N(CC)c2ccccc2C1(C)C [Dye IId]

Δλ1 ([1]; solvent DCM): 81
Δλ1 ([1]; solvent DMSO): 92
Δλ1 ([1]; solvent Ethanol): 89
Δλ1 ([1]; solvent Methanol): 88
Δλ1 ([1]; solvent THF): 86
Δλ1 ([1]; solvent Water): 101
Δλ2 ([1]; solvent DCM): 185
Δλ2 ([1]; solvent DMSO): 174
Δλ2 ([1]; solvent Ethanol): 179
Δλ2 ([1]; solvent Methanol): 174
Δλ2 ([1]; solvent THF): 170
Δλ2 ([1]; solvent Water): 188
ε1 (molar extinction coefficient) ([1]; solvent DCM): 2.8 cm^−1M
ε2 (molar extinction coefficient) ([1]; solvent DCM): 2.1 cm^−1M
λabs1 ([1]; solvent DCM): 522 nm
λbs2 ([1]; solvent DCM): 418 nm
λem ([1]; solvent DCM): 603 nm
ε1 (molar extinction coefficient) ([1]; solvent DMSO): 2.6 cm^−1M
ε2 (molar extinction coefficient) ([1]; solvent DMSO): 2.3 cm^−1M
λabs1 ([1]; solvent DMSO): 515 nm
λbs2 ([1]; solvent DMSO): 433 nm
λem ([1]; solvent DMSO): 607 nm
ε1 (molar extinction coefficient) ([1]; solvent Ethanol): 2.8 cm^−1M
ε2 (molar extinction coefficient) ([1]; solvent Ethanol): 2.3 cm^−1M
λabs1 ([1]; solvent Ethanol): 519 nm
λbs2 ([1]; solvent Ethanol): 429 nm
λem ([1]; solvent Ethanol): 608 nm
ε1 (molar extinction coefficient) ([1]; solvent Methanol): 2.7 cm^−1M
ε2 (molar extinction coefficient) ([1]; solvent Methanol): 2.2 cm^−1M
λabs1 ([1]; solvent Methanol): 517 nm
λbs2 ([1]; solvent Methanol): 431 nm
λem ([1]; solvent Methanol): 605 nm
ε1 (molar extinction coefficient) ([1]; solvent THF): 2.9 cm^−1M
ε2 (molar extinction coefficient) ([1]; solvent THF): 2.2 cm^−1M
λabs1 ([1]; solvent THF): 510 nm
λbs2 ([1]; solvent THF): 426 nm
λem ([1]; solvent THF): 596 nm
ε1 (molar extinction coefficient) ([1]; solvent Water): 2.3 cm^−1M
ε2 (molar extinction coefficient) ([1]; solvent Water): 1.9 cm^−1M
λabs1 ([1]; solvent Water): 516 nm
λbs2 ([1]; solvent Water): 429 nm
λem ([1]; solvent Water): 617 nm
Φ1 (fluorescence quantum yield) ([2]; solvent DCM): 0.106
Φ2 (fluorescence quantum yield) ([2]; solvent DCM): 0.075
Φ1 (fluorescence quantum yield) ([2]; solvent DMSO): 0.009
Φ2 (fluorescence quantum yield) ([2]; solvent DMSO): 0.008
Φ1 (fluorescence quantum yield) ([2]; solvent Ethanol): 0.019
Φ2 (fluorescence quantum yield) ([2]; solvent Ethanol): 0.017
Φ1 (fluorescence quantum yield) ([2]; solvent Methanol): 0.008
Φ2 (fluorescence quantum yield) ([2]; solvent Methanol): 0.007
Φ1 (fluorescence quantum yield) ([2]; solvent THF): 0.085
Φ2 (fluorescence quantum yield) ([2]; solvent THF): 0.075
Φ1 (fluorescence quantum yield) ([2]; solvent Water): 0.003
Φ2 (fluorescence quantum yield) ([2]; solvent Water): 0.001
SMILES: CCN1/C(=C/C=C/C(=C/C2=[N+](CC)c3ccccc3C2(C)C)NCc2ccccc2)C(C)(C)c2ccccc21 [Dye IIe]
